One test deals with statin induced fatigue. Put plainly: Pilot clinical study Q10: Fatigue Impact Scale (FIS). Format: in vivo, human. The conditions noted are these: for FIS (Fatigue Impact Scale): one line per patient. From the text:
Table 2 outlines data for four patients (numbered #1-#4) undergoing statin therapy for treatment of hypercholesterolemia and who had reported suffering from varying levels of muscular pain and fatigue. This study is ongoing, but the results below follow the study with these four patients from week minus1 (WK(-1)) to week plus 4 (WK(+4)). Patients were either contacted or attended the clinic at weeks -1, 0, +1, +2 and +4. At the clinic on the first week (WK(-1)) details of the patients' statin medication were recorded and daily doses were noted. Patients were also scored for pain using the McGill Pain Questionnaire (Melzack, R., 1975 “The McGill Pain Questionnaire: Major Properties and Scoring Methods”. Pain 1:277-299, the disclosure of which is included herein in its entirety by way of reference) scales for Pain Rating Index (PRI) and Present Pain Intensity (PPI). In the PRI index, which comprises two scores, higher scores indicate increasing levels of pain. In the PPI index present pain is given a score of 0 to 5, where 0 represents no pain and 5 represents excruciating pain. Patients were also scored at WK(-1) for fatigue using the Fatigue Impact Scale (Fisk, J. D. et al, 1994, “Measuring the functional impact of fatigue: Initial Validation of the Fatigue Impact Scale”, Clinical Infectious Disease, 18 (Suppl 1):[…]-83, the disclosure of which is included herein in its entirety by way of reference). Questionnaires to determine PRI, PPI and FIS scores were conducted thereafter at weeks +1, +2 and +4. At weeks +1 and +2 the patients were contacted by telephone and were asked to mail their self assessment questionnaires to the clinic. Commencing at WK(0) and continuing through the study the patients were asked to take a daily dose of 300 mg of Coenzyme Q10 (Q10), which was administered as […] sof gel capsules (commercially available from R. P. Scherer), morning and evening.

The test system of the next test is alanine aminotransferase. Put plainly: Pilot clinical study Q10: blood alanine aminotransferase concentration (measure of liver damage). Format: in vivo, human. On the procedure:
Commencing at WK(0) and continuing through the study the patients were asked to take a daily dose of 300 mg of Coenzyme Q10 (Q10), which was administered as […] sof gel capsules (commercially available from R. P. Scherer), morning and evening.

“And” between values parts separate entries of the source, which are not always exact repeats. Equal entries are not always repeated.

Take `COC1=C(OC)C(=O)C(C/C=C(\C)CC/C=C(\C)CC/C=C(\C)CC/C=C(\C)CC/C=C(\C)CC/C=C(\C)CC/C=C(\C)CC/C=C(\C)CC/C=C(\C)CCC=C(C)C)=C(C)C1=O` [Q10, Coenzyme Q10]: the “change in FIS scores (overall statement)” value in the test on statin induced fatigue (300 mg Q10 daily to WK(+4), a few patients) was “Marginal decreases”. Also, the “FIS (Fatigue Impact Scale)” value is 42 and 19 and 91 and 18 in the test with statin induced fatigue (WK(+1), 300 mg Q10 daily from WK(0)); 47 and 44 and 90 and 16 in the test on statin induced fatigue (WK(+2), 300 mg Q10 daily from WK(0)); 43 and 6 and 90 and 16 in the test on statin induced fatigue (WK(+4), 300 mg Q10 daily from WK(0)); 48 and 39 and 104 and 15 with statin induced fatigue (WK(−1), baseline before Q10, patients on statin therapy). In addition, the “ALT (alanine aminotransferase concentration)” value with alanine aminotransferase (WK(0), baseline before Q10, normal range 0-40, one line per patient) was 31 units/L and 14 units/L and 33 units/L; with alanine aminotransferase (WK(+4), 300 mg Q10 daily from WK(0), normal range 0-40, one line per patient) it was 25 units/L and 11 units/L and 19 units/L and 35 units/L.
